Measured values from patent publication US8518956B2, “1-(1-(2-ethoxyethyl)-3-ethyl-7-(4-methylpyridin-2-ylamino)-1H-pyrazolo[4,3-d]pyrimidin-5-yl) piperidine-4-carboxylic acid and salts thereof” (priority 2005, dated 2013).
Where two headings read alike, the source gives them in different places.

Assays:
PDE5 enzyme = biological target: T1, PDE5 enzyme (Homo sapiens, UniProt O76074); experiment: Method 1: Human Platelet PDE5 Enzyme Inhibition Scintillation Proximity Assay; format: biochemical; settings: METHOD 1: PDE5 IC50, Table B, WO2004096810 examples
T1 construct: The PDE5 enzyme isolated from human platelets; from tissue; host or cells: human platelets
Method in brief: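 Human platelet PDE5 hydrolysing 500 nM cGMP (3:1 unlabelled:[3H]) in Tris-HCl pH 7.4 with MgCl2 and BSA, 60 min at 30 °C. Reaction stopped with yttrium silicate SPA beads and [3H]GMP counted by scintillation. IC50 from sigmoid curves over a 10-point half-log dilution series, in duplicate.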

PDE6 enzyme [1] = settings: read-out: METHOD 2: PDE6 IC50; Table F, WO2004096810 examples
Source text: Method 2: Human Retina PDE6 Enzyme Inhibition Scintillation Proximity Assay (SPA)
The inhibition of PDE6 enzyme activity by a test compound can be measured in accordance with the in vitro assay of Method 1, but instead using semi-purified PDE6 enzyme isolated from human, bovine or canine retina in place of PDE5 enzyme. […] [3H]GMP binds to yttrium silicate SPA beads and is detected by scintillation counting. • PDE6 Purification: PDE6 can be isolated and purified from the following: Soluble rod PDE6/Rod Outer Segment PDE6 from Bovine eyes (Charles River Ltd, France); Cone PDE6 from Canine eyes (LAS); or Soluble rod and Cone PDE6 from Human eyes (I.I.A.M.).
While supporting the eye with the cornea uppermost, make a small incision through the conjunctiva below the level of the iris. The incision should be sufficient to allow the humor to escape through the cut. Using fine scissors, cut around the cornea to enable it to be lifted off as a flap. Using a small hook, engage the lens and gently pull it out of orbit, taking care not to pull out the retina at the same time. Allow the retina to drop down of its own accord to the base of the orbit.
Lift the retina with care and locate the optic nerve. Cut through the optic nerve and transfer the retina to a small dish containing a few ml of homogenisation buffer. Gently float the retina out on the surface of the buffer and remove any obvious pigmented material from the iris. Place the retina in a second dish with clean buffer to remove last traces of pigment and then transfer to a 50 ml Corning Costar centrifuge tube (Sigma) and keep on ice. • PDE6 Isolation and Purification from Retina: Allow 2 mls of the homogenisation buffer per bovine retina and 1 ml per retina for dog and human. Homogenise using hand-held homogeniser 3×5 second bursts cooling on ice between each burst. Filter homogenate through two layers of surgical gauze. Spin at 100,000 g for 60 minutes at 4° C. […] Run through FPLC (Pharmacia FPLC LKB/FRAC-100, Pharmacia) or aliquot and store in liquid nitrogen as needed. Method 2A: Alternative Human Retina PDE6 Enzyme Inhibition Scintillation Proximity Assay (SPA)

PDE6 enzyme [2] = experiment: Method 2A: Alternative Human Retina PDE6 Enzyme Inhibition Scintillation Proximity Assay (SPA); format: biochemical; settings: Table F, WO2004096810 examples
Source text: The inhibition of PDE6 enzyme activity by a test compound also can be measured in accordance with the in vitro assay of Method 1A, but instead using semi-purified PDE6 enzyme isolated from human, bovine or canine retina in place of PDE5 enzyme. […] [3H]GMP binds to yttrium silicate SPA beads and is detected by scintillation counting.

PDE11 enzyme = biological target: T2, PDE11 enzyme (Homo sapiens, UniProt Q9HCR9, DUP921-921); experiment: Method 3A: Alternative Human Recombinant PDE11 Enzyme Inhibition Scintillation Proximity Assay (SPA); format: biochemical; settings: Table F, WO2004096810 examples
T2 construct: FLAG (N); made in house; host or cells: Sf9 insect cells (baculovirus, pFastBac)
T2 sequence (Q9HCR9 with tags, fused parts or gaps DUP921-921 limits assumed): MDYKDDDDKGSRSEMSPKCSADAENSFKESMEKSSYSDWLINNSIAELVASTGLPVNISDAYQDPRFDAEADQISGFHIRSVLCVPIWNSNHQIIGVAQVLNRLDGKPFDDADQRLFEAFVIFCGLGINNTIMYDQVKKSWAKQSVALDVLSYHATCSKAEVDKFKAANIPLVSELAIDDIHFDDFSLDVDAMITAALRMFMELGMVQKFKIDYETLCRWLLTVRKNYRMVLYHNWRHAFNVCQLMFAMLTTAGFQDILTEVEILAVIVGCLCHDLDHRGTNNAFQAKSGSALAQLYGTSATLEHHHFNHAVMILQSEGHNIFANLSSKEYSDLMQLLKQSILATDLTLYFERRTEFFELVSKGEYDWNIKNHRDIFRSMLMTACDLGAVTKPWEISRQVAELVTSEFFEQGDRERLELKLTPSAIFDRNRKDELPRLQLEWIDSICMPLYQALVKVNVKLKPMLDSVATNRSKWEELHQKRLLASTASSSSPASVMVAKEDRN
Experimental: Incubate at 27° C. with 220 rpm shaking for 48 hours. Harvest the infected cells by pelleting at 2000 rpm for 10 minutes at 4° C. Store the infected cell pellet at −80° C. until ready for purification. Resuspend the thawed cell pellets to 1×10^7 cells/ml (=20 ml buffer consisting of 20 mM Hepes (pH7.2), 1 mM EDTA, 20 mM sucrose, 150 mM NaCl and protease inhibitor tablets). Mix thoroughly and allow to stand on ice for 10 minutes. Sonicate for 5×5 seconds, on ice. Spin the mixture at 12,000 rpm for 10 minutes at 4° C. in SS34. Store the insoluble pellet at −80° C., and proceed to the purification of the soluble material. • (b) Purification: Prepare the column (1.0 cm diameter, Kontes) by rinsing the empty column twice with TBS. Then mix beads (Anti-FLAG M2 Agarose, Sigma) with TBS and add to the column—allow the beads to settle. Wash the column with 3 column volumes of 0.1M glycine (pH3.5). […] Apply the extract to the column and allow the extract to enter by gravity flow. Reapply the flow-through. Wash the column with 15 column volumes of TBS. Elute the protein with 5×1 ml aliquots of FLAG peptide (Sigma) (i.e., 100 ug/ml in TBS). Elute the remaining protein with 1 ml 0.1M glycine, and immediately add 25 ul 1M Tris pH8 to neutralize. Method 3A: Alternative Human Recombinant PDE11 Enzyme Inhibition Scintillation Proximity Assay (SPA)

Cc1ccnc(Nc2nc(N3CCC(C(=O)O)CC3)nc3c(C)nn(CCOCC(F)(F)F)c23)c1 [WO2004096810 Example 261]
IC50 (PDE5 enzyme): 0.57 nM | IC50 (PDE6 enzyme [1]): 58.8 nM | IC50 (PDE6 enzyme [2]): 110 nM | IC50 (PDE11 enzyme): 585 nM

Cc1cc(Nc2nc(N3CCC(C(=O)O)CC3)nc3c(C)nn(CCOCC(F)(F)F)c23)ncn1 [WO2004096810 Example 262]
IC50 (PDE5 enzyme): 0.93 nM | IC50 (PDE6 enzyme [1]): 47.7 nM | IC50 (PDE6 enzyme [2]): 66.3 nM | IC50 (PDE11 enzyme): 608 nM

CCc1nn(CCOCC(F)(F)F)c2c(Nc3cc(C)ncn3)nc(N3CCC(C(=O)O)CC3)nc12 [WO2004096810 Example 263]
IC50 (PDE5 enzyme): 0.27 nM | IC50 (PDE6 enzyme [1]): 25.3 nM | IC50 (PDE6 enzyme [2]): 30.6 nM | IC50 (PDE11 enzyme): 384 nM
